Source: US7566712B2, “Biaryl piperazinyl-pyridine analogues” (Neurogen Corporation, priority 2003, dated 2009)

Molecular target: T1, human capsaicin receptor (Homo sapiens, UniProt Q8NER1)
T1 construct: pBK-CMV expression construct encoding the full length human capsaicin receptor; expressed in transfected cells
Assay: Calcium mobilization assay, determination of antagonist activity (Example 6)
Type: cell-based
Conditions: Table II; determined as described in Example 6 (antagonist activity); "*" = 1 micromolar or less
Method in brief: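 HEK293 clonal lines stably expressing full-length human capsaicin receptor, loaded with Fluo-3 AM in KRH buffer pH 7.4, 1–2 h at 37 °C. Compounds (1–5 μM final) preincubated 0.5–6 h at room temperature, then capsaicin at its EC50 added. FLIPR/Fluoroskan calcium signal; IC50 as 50% decrease of capsaicin response.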

T1 sequence (Q8NER1 whole entry): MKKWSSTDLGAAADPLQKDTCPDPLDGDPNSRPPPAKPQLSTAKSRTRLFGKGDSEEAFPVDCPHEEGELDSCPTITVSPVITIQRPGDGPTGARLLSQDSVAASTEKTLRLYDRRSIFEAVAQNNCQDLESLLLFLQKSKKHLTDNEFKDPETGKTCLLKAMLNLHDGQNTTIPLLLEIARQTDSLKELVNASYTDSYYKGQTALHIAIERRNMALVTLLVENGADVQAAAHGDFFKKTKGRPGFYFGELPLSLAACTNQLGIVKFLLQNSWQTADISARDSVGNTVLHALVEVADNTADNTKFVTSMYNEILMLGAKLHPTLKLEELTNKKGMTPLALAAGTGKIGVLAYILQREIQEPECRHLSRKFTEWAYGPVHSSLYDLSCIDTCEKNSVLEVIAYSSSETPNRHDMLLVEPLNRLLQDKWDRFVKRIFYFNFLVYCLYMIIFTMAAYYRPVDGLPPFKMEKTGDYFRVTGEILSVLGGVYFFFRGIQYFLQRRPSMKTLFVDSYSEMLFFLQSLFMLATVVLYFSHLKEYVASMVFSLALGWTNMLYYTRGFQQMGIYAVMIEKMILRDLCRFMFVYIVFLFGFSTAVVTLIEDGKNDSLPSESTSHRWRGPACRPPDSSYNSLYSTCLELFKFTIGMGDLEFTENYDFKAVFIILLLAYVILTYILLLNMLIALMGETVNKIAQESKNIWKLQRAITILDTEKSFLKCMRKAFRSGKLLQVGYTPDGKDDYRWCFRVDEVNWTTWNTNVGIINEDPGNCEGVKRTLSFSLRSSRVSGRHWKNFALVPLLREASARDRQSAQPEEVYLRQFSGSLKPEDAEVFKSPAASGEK

| SMILES | IC50 [nM] |
| --- | --- |
| C[C@@H]1CN(c2ncccc2Cl)CCN1c1cc(-c2cncc(C#N)c2)nc(N2CCCC2)n1 [Example 879, 5-{6-[(2R)-4-(3-chloropyridin-2-yl)-2-methylpiperazin-1-yl]-2-pyrrolidin-1-ylpyrimidin-4-yl}nicotinonitrile] | ≤ 1000 |
| CC1CCCN1c1nc(-c2cncc(C#N)c2)cc(N2CCN(c3ncccc3Cl)C[C@H]2C)n1 (some centres unmarked) [Example 880, 5-[6-[4-(3-chloropyridin-2-yl)-2-methylpiperazin-1-yl]-2-(2-methylpyrrolidin-1-yl)pyrimidin-4-yl]nicotinonitrile] | ≤ 1000 |
| CC1CCCN1c1nc(-c2cccnc2)cc(N2CCN(c3ncccc3Cl)C[C@H]2C)n1 (some centres unmarked) [Example 882, 4-[4-(3-chloropyridin-2-yl)-2-methylpiperazin-1-yl]-2-(2-methylpyrrolidin-1-yl)-6-pyridin-3-ylpyrimidine] | ≤ 1000 |
| C[C@@H]1CN(c2ncccc2Cl)CCN1c1cc(-c2cccnc2)nc(N2CCCC2)n1 [Example 883, 4-[(2R)-4-(3-chloropyridin-2-yl)-2-methylpiperazin-1-yl]-6-pyridin-3-yl-2-pyrrolidin-1-ylpyrimidine] | ≤ 1000 |
| O=C1CNCCN1c1nc(-c2ccc(F)c(Cl)c2)cc(N2CCN(c3ncccc3C(F)(F)F)CC2)n1 [Example 884, 1-(4-(3-chloro-4-f1uorophenyl)-6-{4-[3-(trifluoromethyl)pyridin-2-yl]piperazin-1-yl}pyrimidin-2-yl)piperazin-2-one] | ≤ 1000 |
| CCCN1CCN(c2nc(-c3ccc(F)c(Cl)c3)cc(N3CCN(c4ncccc4C(F)(F)F)CC3)n2)C(=O)C1 [Example 885, 1-(4-(3-chloro-4-fluorophenyl)-6-{4-[3-(trifluoromethyl)pyridin-2-yl]piperazin-1-yl}pyrimidin-2-yl)-4-propylpiperazin-2-one] | ≤ 1000 |
| N#Cc1cncc(-c2cc(N3CCN(c4ncccc4C(F)(F)F)CC3)nc(N3CCCC3)n2)c1 [Example 886, 5-(2-pyrrolidin-1-yl-6-{4-[3-(trifluoromethyl)pyridin-2-yl]piperazin-1-yl}pyrimidin-4-yl)nicotinonitrile] | ≤ 1000 |
| CC1CCCN1c1nc(-c2cncc(C#N)c2)cc(N2CCN(c3ncccc3C(F)(F)F)CC2)n1 (centres unmarked) [Example 887, 5-(2-(2-methylpyrrolidin-1-yl)-6-{4-[3-(trifluoromethyl)pyridin-2-yl]piperazin-1-yl}pyrimidin-4-yl)nicotinonitrile] | ≤ 1000 |
| CCCN1CCN(c2nc(-c3ccc(F)c(Cl)c3)cc(N3CCN(c4ncccc4C)CC3)n2)CC1 [Example 889, 4-(3-chloro-4-fluorophenyl)-6-[4-(3-methylpyridin-2-yl)piperazin-1-yl]-2-(4-propylpiperazin-1-yl)pyrimidine] | ≤ 1000 |
| C[C@@H]1CN(c2ncccc2Cl)CCN1c1cc(-c2ccc(F)cc2)nc(N2CCN3CCC[C@H]3C2)n1 [Example 890, (8aS)-2-[4-[(2R)-4-(3-chloropyridin-2-yl)-2-methylpiperazin-1-yl]-6-(4-fluorophenyl)pyrimidin-2-yl]octahydropyrrolo[1,2-a]pyrazine] | ≤ 1000 |
| Fc1ccc(-c2cc(N3CCN(c4ncccc4C(F)(F)F)CC3)nc(N3CCN4CCC[C@H]4C3)n2)cc1Cl [Example 891, (8aS)-2-(4-(3-chloro-4-fluorophenyl)-6-{4-[3-(trifluoromethyl)pyridin-2-yl]piperazin-1-yl}pyrimidin-2-yl)octahydropyrrolo[1,2-a]pyrazine] | ≤ 1000 |
| FC(F)(F)c1cccnc1N1CCN(c2cc(-c3cccc(Cl)c3)nc(N3CCN4CCC[C@H]4C3)n2)CC1 [Example 892, (8aS)-2-(4-(3-chlorophenyl)-6-{4-[3-(trifluoromethyl)pyridin-2-yl]piperazin-1-yl}pyrimidin-2-yl)octahydropyrrolo[1,2-a]pyrazine] | ≤ 1000 |
| CN(C)CCC(O)c1nc(-c2ccc(F)c(F)c2)cc(N2CCN(c3ncccc3C(F)(F)F)CC2)n1 (centres unmarked) [Example 893] | ≤ 1000 |
| C[C@@H]1CN(c2ncccc2F)CCN1c1cc(-c2ccc(F)c(F)c2)nc(Cl)n1 [Example 894, 2-chloro-4-(3,4-difluorophenyl)-6-[(2R)-4-(3-fluoropyridin-2-yl)-2-methylpiperazin-1-yl]pyrimidine] | ≤ 1000 |
| CC1CCCN1c1nc(-c2ccc(F)c(F)c2)cc(N2CCN(c3ncccc3F)C[C@H]2C)n1 (some centres unmarked) [Example 895, 4-(3,4-difluorophenyl)-6-[4-(3-fluoropyridin-2-yl)-2-methylpiperazin-1-yl]-2-(2-methylpyrrolidin-1-yl)pyrimidine] | ≤ 1000 |
| C[C@@H]1CN(c2ncccc2F)CCN1c1cc(-c2ccc(F)c(F)c2)nc(N2CCCC2)n1 [Example 896, 4-(3,4-difluorophenyl)-6-[(2R)-4-(3-fluoropyridin-2-yl)-2-methylpiperazin-1-yl]-2-pyrrolidin-1-ylpyrimidine] | ≤ 1000 |
| C[C@@H]1CN(c2ncccc2F)CCN1c1cc(-c2ccc(F)c(F)c2)nc(N2CCOCC2)n1 [Example 897, 4-{4-(3,4-difluorophenyl)-6-[(2R)-4-(3-fluoropyridin-2-yl)-2-methylpiperazin-1-yl]pyrimidin-2-yl}morpholine] | ≤ 1000 |
| Cc1cc(-c2cc(N3CCN(c4ncccc4Cl)C[C@@H]3C)nc(Cl)n2)ccc1F [Example 898, 2-chloro-4-[(2S)-4-(3-chloropyridin-2-yl)-2-methylpiperazin-1-yl]-6-(4-fluoro-3-methylphenyl)pyrimidine] | ≤ 1000 |
| Cc1cc(-c2cc(N3CCN(c4ncccc4Cl)C[C@@H]3C)nc(N3CCCC3)n2)ccc1F [Example 902, 4-[(2S)-4-(3-chloropyridin-2-yl)-2-methylpiperazin-1-yl]-6-(4-fluoro-3-methylphenyl)-2-pyrrolidin-1-ylpyrimidine] | ≤ 1000 |

Results, then the compound that gave them:

| IC50 [nM] | SMILES |
| --- | --- |
| ≤ 1000 | CC(=O)c1nc(-c2ccc(F)c(F)c2)cc(N2CCN(c3ncccc3C(F)(F)F)CC2)n1 [Example 862, 1-(4-(3,4-difluorophenyl)-6-{4-[3-(trifluoromethyl)pyridin-2-yl]piperazin-1-yl}pyrimidin-2-yl)ethanone] |
| ≤ 1000 | CCCN1CC=C(c2nc(-c3ccc(F)c(Cl)c3)cc(N3CCN(c4ncccc4C(F)(F)F)CC3)n2)CC1 [Example 863, 4-(3-chloro-4-fluorophenyl)-2-(1-propyl-1,2,3,6-tetrahydropyridin-4-yl)-6-{4-[3-(trifluoromethyl)pyridin-2-yl]piperazin-1-yl}pyrimidine] |
| ≤ 1000 | Fc1ccc(-c2cc(N3CCN(c4ncccc4C(F)(F)F)CC3)nc(C3=CCNCC3)n2)cc1Cl [Example 864, 4-(3-chloro-4-fluorophenyl)-2-(1,2,3,6-tetrahydropyridin-4-yl)-6-{4-(3-(trifluoromethyl)pyridin-2-yl]piperazin-1-yl}pyrimidine] |
| ≤ 1000 | CC1CCCN1c1nc(-c2ccc(-c3ncon3)cc2)cc(N2CCN(c3ncccc3Cl)C[C@H]2C)n1 (some centres unmarked) [Example 865, 4-[4-(3-chloropyridin-2-yl)-2-methylpiperazin-1-yl]-2-(2-methylpyrrolidin-1-yl)-6-[4-(1,2,4-oxadiazol-3-yl)phenyl]pyrimidine] |
| ≤ 1000 | C[C@@H]1CN(c2ncccc2Cl)CCN1c1cc(-c2cccc(C#N)c2)nc(N2CCCC2)n1 [Example 868, 3-{6-[(2R)-4-(3-chloropyridin-2-yl)-2-methylpiperazin-1-yl]-2-pyrrolidin-1-ylpyrimidin-4-yl}benzonitrile] |
| ≤ 1000 | Fc1ccc(-c2cc(N3CCN(c4ncccc4C(F)(F)F)CC3)nc(C3CCNCC3)n2)cc1Cl [Example 871, 4-(3-chloro-4-fluorophenyl)-2-piperidin-4-yl-6-{4-[3-(trifluoromethyl)pyridin-2-yl]piperazin-1-yl}pyrimidine] |
| ≤ 1000 | CCCN1CCC(c2nc(-c3ccc(F)c(Cl)c3)cc(N3CCN(c4ncccc4C(F)(F)F)CC3)n2)CC1 [Example 872, 4-(3-chloro-4-fluorophenyl)-2-(1-propylpiperidin-4-yl)-6-{4-[3-(trifluoromethyl)pyridin-2-yl]piperazin-1-yl}pyrimidine] |
| ≤ 1000 | Cc1ccc(C)n1-c1nc(-c2ccc(F)cc2)cc(N2CCN(c3ncccc3Cl)C[C@H]2C)n1 [Example 873, 4-((2R)-4-(3-chloropyridin-2-yl)-2-methylpiperazin-1-yl]-2-(2,5-dimethyl-1H-pyrrol-1-yl)-6-(4-fluorophenyl)pyrimidine] |
| ≤ 1000 | Cc1ccc(C)n1-c1nc(-c2ccc(C#N)cc2)cc(N2CCN(c3ncccc3Cl)C[C@H]2C)n1 [Example 874, 4-[6-[(2R)-4-(3-chloropyridin-2-yl)-2-methypiperazin-1-yl]-2-(2,5-dimethyl-1H-pyrrol-1-yl)pyrimidin-4-yl]benzonitrile] |
| ≤ 1000 | Cc1ccc(C)n1-c1nc(-c2ccc(F)cc2)cc(N2CCN(c3ncccc3C(F)(F)F)CC2)n1 [Example 875, 2-(2,5-dimethyl-1H-pyrrol-1-yl)-4-(4-fluorophenyl)-6-{4-[3-(trifluoromethyl)pyridin-2-yl]piperazin-1-yl}pyrimidine] |
| ≤ 1000 | Cc1ccc(C)n1-c1nc(-c2ccc(C#N)cc2)cc(N2CCN(c3ncccc3C(F)(F)F)CC2)n1 [Example 876, 4-(2-(2,5-dimethyl-1H-pyrrol-1-yl)-6-{4-[3-(trifluoromethyl)pyridin-2-yl]piperazin-1-yl}pyrimidin-4-yl)benzonitrie] |
| ≤ 1000 | Cc1cc(-c2cc(N3CCN(c4ncccc4C(F)(F)F)CC3)nc(-n3c(C)ccc3C)n2)ccc1F [Example 877, 2-(2,5-dimethyl-1H-pyrrol-1-yl)-4-(4-fluoro-3-methylphenyl)-6-{4-[3-(trifluoromethyl)pyridin-2-yl]piperazin-1-yl}pyrimidine] |
| ≤ 1000 | CN(C)/C=C\C(=O)c1nc(-c2ccc(F)c(F)c2)cc(N2CCN(c3ncccc3C(F)(F)F)CC2)n1 [Example 878, (2Z)-1-(4-(3,4-difluorophenyl)-6-{4-[3-(trifluoromethyl)pyridin-2-yl]piperazin-1-yl}pyrimidin-2-yl)-3-(dimethylamino)prop-2-en-1-one] |
